Source: patent US20130123358A1, “Metabolic Benefits to Butyrate as a Chronic Diet Supplement” (priority 2009, published 2013)
Read-outs that look alike come from different tables or passages of the source.

Experiments:
[1] = test system: C57BL/6J mice on high fat diet; assay: Body temperature in cold response (4° C.); format: in vivo, mouse; settings: butyrate 5% w/w in HFD 10 weeks, ambient 4° C.
Description: Body temperature was measured in the cold room with ambient temperature at 4° C. Animals were sedated and restrained for less than 30 sec in the measurement. A Thermalert model TH-8 temperature monitor (Physitemp, Clifton, N.J.) was used with probe placed in the rectum at 2.5 cm in depth.
The association of increased food intake with elevated energy expenditure implicated a role of brown adipose tissue, which is responsible for adaptive thermogenesis in response to diet or cold (20-22). Diet-induced thermogenesis reduces obesity in both humans and animals (23). […] To determine the thermogenic function, a cold-response experiment was conducted by exposing the mice to a cold environment with an ambient temperature of 4° C. for 90 min. The mice had been on HFD for 10 weeks. The body core temperature was monitored three times during exposure by measuring the rectal temperature. In the control mice, the body temperature decreased with time and was 34.5° C. after 90 min in the cold (FIG. 4A). In the butyrate-treated mice, the body temperature dropped to 35° C. transiently at 30 minutes, and then returned to 36° C. for the rest of time.

[2] = Butyrate concentration in plasma; format: in vivo; settings: mouse, oral, 5 % w/w in HFD, butyrate 5% w/w in HFD for 16 weeks
Description: The serum fatty acids including butyrate were examined using a protocol described elsewhere (18), and as described below in Example 10. The fatty acids in feces were determined using a protocol as described by Schwarz (19). Triglyceride and cholesterol were measured in the whole blood with the Cardiochek portable test system.
The butyrate concentration was analyzed in plasma collected from the butyrate and control groups in mice fed HFD for 16 weeks. In a fasted condition (overnight fast), the butyrate concentration was 7.23±0.93 μg/ml in the butyrate group and 5.71±0.38 μg/ml in the control. […] Data are presented as means±SE (n=6). * P<0.05; ** P<0.001.

HDAC [3] = assay: Histone deacetylase assay on muscle nuclear extracts of treated mice; format: in vivo, mouse; settings: butyrate 5% w/w in HFD, 16 weeks on HFD, muscle nuclear extracts
Description: Histone deacetylase assay were conducted according to the instruction from the manufacturer (#17-320, Upstate). Briefly, 10 ug of muscle nuclear extract (as an enzyme) was incubated with [3H]-acetyl CoA (#TRK688, Amersham) radio labeled histone H4 peptide (25,000 CPM, as a substrate) at 37° C. for 12 hours by shaking Released [3H]-acetate was measured using a scintillation counter. The nuclear extract was prepared according to a protocol described elsewhere (17). The muscle tissues were collected and snap-frozen in liquid nitrogen within 2 min of cervical dislocation of mice. Tissue samples were stored at −80° C. until further processing. The muscle sample of 200˜300 mg was cut into small pieces on dry ice and homogenized in 1 ml of lysate buffer. After centrifugation at 10,000 rpm for 1 minute at 4° C., the nucleus was pelleted and collected. After being washed, the nucleus pellet was treated with extraction buffer. The supernatant was collected for nuclear protein after centrifugation at 14,000 rpm for 5 minutes at 4° C.
Without wishing to be bound by this theory, one activity of butyrate could be related to inhibition of HDAC. Sodium butyrate inhibits the class I and class II histone deacetylases (HDACs). To test this possibility, HDAC activity was examined in the skeletal muscle of mice at 16 weeks on HFD (FIG. 7G). The assay was conducted with the nuclear extracts of muscle samples. […]

HDAC [4] = assay: Histone Deacetylase Assay Kit, inhibition by butyrate isoforms; settings: Histone Deacetylase Assay Kit (Upstate), FIG. 8
Description: Several isoforms of butyrate were purchased (Sigma Aldrich Chemicals, St. Louis, Mo.) and tested for inhibitory activity of HDAC, using a Histone Deacetylase Assay Kit (Upstate Biotechnology, Lake Placid, N.Y.).

pigs = settings: dietary; cited from earlier work
[5] = test system: class I and class II histone deacetylases (HDACs); settings: cited from earlier work

CCCC(=O)[O-].[Na+] [sodium butyrate]
body temperature (rectal) at 30 minutes in the cold [1]: 35 °C
body temperature (rectal) for the rest of time in the cold ([1]; up to 90 min): 36 °C
concentration at 16 weeks ([2]; fed, read-out: butyrate concentration in plasma, fed condition): 9400 ± 1360 ng/mL
concentration at 16 weeks ([2]; overnight fast, read-out: butyrate concentration in plasma, fasted condition): 7230 ± 930 ng/mL
HDAC activity in skeletal muscle, reduction (HDAC [3]): 50%
inhibitory activity of HDAC (HDAC [4]): inhibited HDAC
daily body mass gain (pigs): increase
effect on class I and class II HDACs [5]: inhibition
